This is an account of results in EPA's ToxValDB 9.5.

In brackets after ≈: the same amount, converted by molar mass. Several values for one entry are separate records, joined by “and”; a condition that tells them apart may be missing. Equal entries are not always repeated.

For one data set, the system named is Monkey. The following applies: duration: 13 weeks, oral, flavoured beverage, F, Cynomolgus, Estrogenic effects on maturation of vaginal epithelial cells.
A further data set has as its system Cavia porcellus. The following applies: acute; Inhalation.
Data set [1] relates to Oryctolagus sp. Particulars: for LD50: acute.
In data set [2] the test system is Rattus norvegicus. Particulars: for LC50 / LD50: acute.
Data set [3] has as its system Oryctolagus sp. Particulars: subchronic; inhalation; M/F; sedation.
The subject of data set [4] is Rattus norvegicus. The following applies: inhalation, M/F.
Data set [5] deals with Rattus norvegicus.
For data set [6], the system named is Oryctolagus sp. Briefly: LD0; higher = less toxic. Particulars: acute; dermal; semiocclusive; New Zealand.
Data set [7] deals with Rattus norvegicus. Briefly: LD0; higher = less toxic. The following applies: acute; dermal; semiocclusive; Sprague-Dawley.
The subject of data set [8] is Rattus norvegicus. Briefly: LC100; higher = less toxic. Particulars: acute; inhalation; Wistar.
The subject of data set [9] is Mus musculus. The following applies: acute; oral; CD1.
In data set [10] the test system is Mus musculus. The following applies: subchronic; oral; M/F; no effects.
Data set [11] concerns Mus musculus. The following applies: subchronic; duration: 90 days; oral; gavage; M/F; CD-10 (ICR) BR; Whole Body Effects.
The subject of data set [12] is Mus musculus. The following applies: subchronic; duration: 13 weeks; oral; gavage; M/F; CD1; hepatic.
The subject of data set [13] is Rattus norvegicus. The following applies: subchronic; duration: 90 days; oral; drinking water; M/F; Fischer 344; renal.
In data set [14] the test system is Homo sapiens. Particulars: clinical; duration: 10 weeks; oral; drinking water; Cardiovascular system: Increased blood pressure.
The test system of data set [15] is Homo sapiens. Particulars: clinical; Induction of resistant enterobacteriaceae.
Data set [16] relates to Homo sapiens. Particulars: clinical; duration: 2 weeks; oral; Endocrine.
The subject of data set [17] is Homo sapiens. The following applies: clinical, duration: 14 days, oral, M, hematological.
Setting [18] is: reproduction developmental, duration: 19 days, oral, gavage, Sprague-Dawley.
Where [19] appears, read: short-term, inhalation, New Zealand.
Where [20] appears, read: short-term, inhalation, M, Sprague-Dawley.
[21] abbreviates: short-term, duration: 8 days, oral, gavage, Sprague-Dawley.

As for `CC1CCCC(O)CCCCCc2cc(O)cc(O)c2C(=O)O1` (stereo not given), the NOEL in the data set with Monkey and in the data set with Monkey (subchronic) was 0.05 mg/kg-day throughout.
For `CC(C)(N=C=O)c1cccc(C(C)(C)N=C=O)c1` [1,3-Bis(2-isocyanato-2-propyl)benzene], the LC50 amounted to 0.24 µg/mL (≈ 0.982 µM) with Cavia porcellus and 0.027 µg/mL (≈ 0.111 µM) with Rattus norvegicus [2] (inhalation, Sprague-Dawley). Also, the median lethal dose (LD50) (usually the dose expected to kill half of the subjects tested) is > 2000 mg/kg in the data set with Oryctolagus sp. [1] (dermal, occlusive, New Zealand) and > 5000 mg/kg with Rattus norvegicus [2] (oral, gavage, Sprague-Dawley). For the same molecule, the LOAEL (commonly the lowest tested level that showed an adverse finding) in the data set on Rattus norvegicus [2] (setting [18]) worked out at 250 mg/kg-day. For the same molecule, the NOAEL – broadly, the highest tested level that showed no adverse finding – in the data set with Rattus norvegicus [2] (setting [18]) is 150 mg/kg-day; with Rattus norvegicus [2] (reproduction developmental, duration: 19 days, oral, gavage, Sprague-Dawley, generation: F0) it was 150 mg/kg-day; with Rattus norvegicus [2] (reproduction developmental, duration: 19 days, oral, gavage, Sprague-Dawley, generation: F1) it was 250 mg/kg-day; in the data set with Rattus norvegicus [2] (reproduction developmental, oral, gavage, F, Sprague-Dawley), 150 mg/kg-day; with Rattus norvegicus [2] (reproduction developmental, oral, gavage, Sprague-Dawley, generation: F1), 250 mg/kg-day; in the data set with Rattus norvegicus [2] (short-term, duration: 4 weeks, Inhalation, Sprague-Dawley), 1.5 mg/m3.
In the case of `COCC(C)O` (stereo not given) [1-Methoxy-2-propanol], in the data set with Oryctolagus sp. [3], the LOAEL came out at 11100 mg/m3 and the NOAEL came to 3680 mg/m3. In the data set with Rattus norvegicus [4] (subchronic, sedation), the LOAEL is 11100 mg/m3 and the no observed adverse effect level (NOAEL) turned out to be 3680 mg/m3. Also, the NOEL in the data set on Rattus norvegicus [5] (subchronic, duration: 35 days, oral, gavage, Kidney: Histopathology + Liver: Histopathology) is 947 mg/kg-day.
For the molecule `O=[N+]([O-])C(CO)(CO)CO` [2-(Hydroxymethyl)-2-nitro-1,3-propanediol], the LD0 in the data set on Oryctolagus sp. [6] is > 2000 mg/kg; with Rattus norvegicus [7] it was > 5000 mg/kg. Also, the LC50 in the data set with Rattus norvegicus [2] (Inhalation, Sprague-Dawley) was 2.4 µg/mL (≈ 15.9 µM); with Rattus norvegicus [2] (inhalation, particle, Sprague-Dawley), > 2.12 µg/mL. Further, the LD50 in the data set on Rattus norvegicus [2] (oral, gavage) is ≥ 990 mg/kg and ≤ 1000 mg/kg.
Consider `CC(C)[N+](=O)[O-]` [2-Nitropropane], for which the lowest-observed-adverse-effect level (LOAEL) came out at 78 mg/m3 with Rattus norvegicus [4] (chronic, liver focal vacuolization and nodules); 754 mg/m3 in the data set on Oryctolagus sp. [1] (setting [19]); 754 mg/m3 with Rattus norvegicus [2] (setting [20]); 78 mg/m3 with Rattus norvegicus [5] (chronic, duration: 22 months, inhalation, intermittent, Liver: Lesions). Further, the LC100 in the data set with Rattus norvegicus [8] was 53600 mg/m3. Also, the LD50 in the data set on Oryctolagus sp. [1] (dermal) is > 200 mg/kg; in the data set with Oryctolagus sp. [1] (dermal, New Zealand), > 2000 mg/kg; in the data set with Oryctolagus sp. [1] (oral, gavage) it was ≥ 500 mg/kg and ≤ 750 mg/kg; with Mus musculus [9], 393 mg/kg and ≥ 346 mg/kg and ≤ 446 mg/kg. For the same molecule, the NOAEL is 98.4 mg/m3 in the data set with Oryctolagus sp. [1] (setting [19]); < 170 mg/kg-day with Rattus norvegicus [2] (developmental, duration: 15 days, injection, Intraperitoneal, Sprague-Dawley); 170 mg/kg-day with Rattus norvegicus [2] (reproduction developmental, duration: 15 days, injection, Intraperitoneal, F, Sprague-Dawley); 98.4 mg/m3 with Rattus norvegicus [2] (setting [20]). In addition, the LC50 in the data set on Rattus norvegicus [2] (inhalation, Sprague-Dawley) is 2620 mg/m3 and 1460 mg/m3; in the data set on Rattus norvegicus [2] (inhalation, Wistar) it was ≥ 12.1 µg/mL and ≤ 14.4 µg/mL.
On to `c1ccc2cc3ccccc3cc2c1` [Anthracene], for which the NOEL in the data set on Mus musculus [10] and with Mus musculus [11] was 1000 mg/kg-day in each case. In addition, in the data set with Mus musculus [12], the NOAEL turned out to be 1000 mg/kg-day.
With `[Ba]` [Barium], the NOAEL with Rattus norvegicus [13] was determined as 65 mg/kg-day; in the data set with Homo sapiens [14] it was 0.21 mg/kg-day. Moreover, the NOEL in the data set on Rattus norvegicus [5] (developmental, duration: 4 months, inhalation, intermittent, Fetus: Fetotoxicity) is 0.8 mg/m3.
Take `CN(C)[C@@H]1C(=O)C(C(N)=O)=C(O)[C@@]2(O)C(=O)C3=C(O)c4c(O)ccc(Cl)c4[C@@](C)(O)[C@H]3C[C@@H]12` [Chlortetracycline]: in the data set on Homo sapiens [15], the LOEL is 20 mg/day and the NOEL was 2 mg/day.
On to `[Co]` [Cobalt], for which the LOAEL in the data set on Homo sapiens [16] and in the data set with Homo sapiens [17] was 1 mg/kg-day throughout. In addition, the NOAEL with Homo sapiens [17] (capsule) stood at 0.8 mg/kg-day.
`CC(C)C(C)(C)C(C)(C)C(C)(C)SSSSSC(C)(C)C(C)(C)C(C)(C)C(C)C` [Di-tert-Dodecyl pentasulfide]: in the data set on Rattus norvegicus [7], the LD0 was ≥ 2000 mg/kg. Moreover, the NOAEL turned out to be 1000 mg/kg-day in the data set with Rattus norvegicus [2] (developmental, duration: 6 days, oral, gavage, Sprague-Dawley); 1000 mg/kg-day with Rattus norvegicus [2] (reproduction developmental, duration: 6 days, oral, gavage, F, Sprague-Dawley); 1250 mg/kg-day with Rattus norvegicus [2] (setting [21]); 1000 mg/kg-day in the data set with Rattus norvegicus [2] (short-term, duration: 28 days, oral, gavage, Sprague-Dawley). Further, the LOAEL in the data set on Rattus norvegicus [2] (setting [21]) is 2500 mg/kg-day.
